Measurements as given in patent publication US7881777B2, “Method and apparatus for performing intra-operative angiography” (National Research Council of Canada, priority 1999, dated 2011).

Test system: mouse femoral artery
Assay: Mouse femoral vessel diameter by ICG fluorescence angiography under topically applied acetylcholine
Details: mouse femoral artery in vivo
Description: In this example, a fluorescent dye (ICG) was injected into the vascular bed (via jugular cannulation in the mouse: via an infusion line in the langendorff perfused heart) and excited using radiation from a laser source (806 nm). The fluorescence (radiation) emitted by the dye (830 nm) was captured as a series of angiograms using a CCD camera. The camera relayed the angiograms to analog-to-digital conversion software running on a PC that digitized the angiograms. The digitized images were then analyzed both qualitatively (by viewing the monitor) and quantitatively. One example of quantitative evaluation that was undertaken was the determination of the mouse femoral artery diameter using software comprising a sub-pixel edge detection system running on the PC.
The foregoing fluorescence imaging technique was used on the mouse femoral artery in vivo. A more detailed explanation of each component of the apparatus, preparation of the animal, injection of ICG, and analytical method, are set forth in the following paragraphs.
The mouse was prepared by inducing anesthesia in an induction box using isoflurane (Ohmeda Pharmaceutical Products, Mississauga, ON, Canada) (4% in medical air, 4 L/min) and maintained by use of a facemask providing isoflurane at a rate of 1.5-2.0% in medical air (400 mL/min). During the experiment, the mouse was positioned on a thermostatted water blanket, with body temperature being monitored by a rectal temperature probe. To facilitate imaging of the vessels of interest, the thoracic, abdominal and inguinal areas of the mouse were shaved, the mouse positioned on its back, and the skin over the femoral vasculature was resected to expose the vasculature of interest. The jugular vein was cannulated using a piece of stretched PE10 tubing filled with saline containing 50 U heparin/mL.
After the mouse was prepared, a 10 μl bolus IV injection of ICG was administered, followed by an IV injection of 50 μl of saline solution. To prepare the bolus, 4 μg/ml of clinical grade ICG (CARDIO-GREEN™) was dissolved in sterile aqueous solvent within one hour of injection. All injections were administered via the cannula established in the jugular vein. The saline was used to flush the line and to ensure passage of an intact bolus through the femoral vasculature, producing a sharp wavefront.
Image analysis was performed using XCAP for Windows 95/98/NT version 1.0 (EPIX Inc., Buffalo Grove, Ill.). The image processing algorithm included the following steps.
1. Selection of vessels of interest. The anatomy of the vasculature varies between animals. Consequently, it was necessary to develop criteria for the selection of an area of interest. This process began with the positioning of the camera. The camera was positioned so that the field of view included the femoral artery and its branches. For the purposes of image analysis, the vessels of interest were the femoral artery and the branches that provided the highest resolution and the greatest degree of branching, usually tertiary or quaternary.
2. Calibration. The positioning of the camera with respect to the area being imaged varied with each animal, and it was therefore necessary to calibrate the camera for every image collected. A small diameter (320 μm) capillary tube (TSP320450; Polymicro Technologies, LLC, Phoenix, Ariz.) filled with ICG was used to calibrate the images. The image processing software includes a built-in calibration function that allows the specification of a set of pixel co-ordinates and the assignment of a user-defined value to the distance between these co-ordinates. The software's edge detector was used to determine the co-ordinates of the edges of the dye fluorescing in the capillary tube. The inner diameter of the capillary tube, in microns, was then assigned to the “length” of the distance between these points. Because this is a built-in feature of the software, all subsequent measurements in all frames of the image were stated in microns, rather than pixel units. […]

Compound: CC(=O)OCC[N+](C)(C)C [Acetylcholine, acetylcholine]
- Vessel Diameter (microns) (Primary vessel, acetylcholine concentration 0.01 μM): 58.2 ± 1.3 microns
- Vessel Diameter (microns) (Primary vessel, acetylcholine concentration 1.0 μM): 58.3 ± 1.5 microns
- Vessel Diameter (microns) (Primary vessel, acetylcholine concentration 10.0 μM): 64.6 ± 1.5 microns
- Vessel Diameter (microns) (Primary vessel, acetylcholine concentration .01 μM): 61.5 ± 1.7 microns
- Vessel Diameter (microns) (Secondary vessel, acetylcholine concentration 0.01 μM): 67.0 ± 1.3 microns
- Vessel Diameter (microns) (Secondary vessel, acetylcholine concentration 1.0 μM): 90.0 ± 1.8 microns
- Vessel Diameter (microns) (Secondary vessel, acetylcholine concentration 10.0 μM): 75.0 ± 1.4 microns
- Vessel Diameter (microns) (Secondary vessel, acetylcholine concentration .01 μM): 75.1 ± 1.2 microns
- Vessel Diameter (microns) (Tertiary vessel, acetylcholine concentration 0.01 μM): 42.9 ± 0.6 microns
- Vessel Diameter (microns) (Tertiary vessel, acetylcholine concentration 1.0 μM): 47.1 ± 1.2 microns
- Vessel Diameter (microns) (Tertiary vessel, acetylcholine concentration 10.0 μM): 42.9 ± 0.8 microns
- Vessel Diameter (microns) (Tertiary vessel, acetylcholine concentration .01 μM): 44.9 ± 0.6 microns
